Laboratory results: patent US20180320217A1, “METHODS FOR SAMPLING AND MEASURING ORAL LAVAGE PROTEINS” (The Procter & Gamble Company, priority 2017, published 2018)
Values joined by “and” are separate entries in the source; they are usually repeats but may differ in a detail not shown here. Equal values may be shown once. “Also recorded” adds a separate entry of the source.

Columns and labels:
diaphorase [1] = test: Formation of formazan dyes: NADH, diaphorase and malate (TABLE 8); assay type: biochemical, Clostridium kluyveri; conditions: NADH, diaphorase and malate
diaphorase [2] = test: Formation of formazan dyes: only diaphorase, not malate (TABLE 13); assay type: biochemical, Clostridium kluyveri; conditions: mean of three experiments
oral lavage [3] = test: Formation of formazan dyes: oral lavage and 1-Methoxy PMS, absence of malate (TABLE 19); assay type: biochemical, human; conditions: disodium salt
diaphorase [4] = test: Formation of formazan dyes: NADH and diaphorase, absence of malate (TABLE 7); assay type: biochemical, Clostridium kluyveri; conditions: NADH and diaphorase, absence of malate
[5] = test system: Malate dehydrogenase and diaphorase; test: Formation of formazan dyes: Malate dehydrogenase and diaphorase, absence of malate (TABLE 9); assay type: biochemical, pig heart
diaphorase [6] = test: Formation of formazan dyes: only diaphorase and malate (TABLE 14); assay type: biochemical, Clostridium kluyveri; conditions: mean of three experiments
[7] = Formation of formazan dyes: control buffer, malate and 1-Methoxy PMS (TABLE 22); assay type: biochemical
[8] = Formation of formazan dyes: NADH and 1-methoxy PMS, absence of malate (TABLE 15); assay type: biochemical; conditions: disodium salt
[9] = Formation of formazan dyes: control buffer and 1-Methoxy PMS, absence of malate (TABLE 21); assay type: biochemical; conditions: disodium salt
[10] = test system: Malate dehydrogenase and diaphorase; test: Formation of formazan dyes: Malate dehydrogenase, diaphorase and malate (TABLE 10); assay type: biochemical, pig heart
[11] = Formation of formazan dyes: NADH, malate and 1-methoxy PMS (TABLE 16); assay type: biochemical
oral lavage [12] = test: Formation of formazan dyes: oral lavage, malate and diaphorase (TABLE 12); assay type: biochemical, human; conditions: oral lavage, malate and diaphorase
oral lavage [13] = test: Formation of formazan dyes: oral lavage and diaphorase, not malate (TABLE 11); assay type: biochemical, human
diaphorase [14] = test: Effect of concentrations of tetrazolium salts on formation of formazan dyes (FIGS. 4A-4G); assay type: biochemical; conditions: 15 mM NADH+H, 20 μg diaphorase, pH 7.5; FIGS. 4A to 4G
Procedure: On the idea that higher concentrations of tetrazolium salts in the assay buffer would likely result in more formazan dyes in the reaction, various concentrations of tetrazolium salts were added to a reaction buffer and the formation of formazan dyes were measured at 0, 30 and 60 minutes. […] The reactions were performed at room temperature. Absorbance was taken at 0, 30 and 60 minutes.

Malate dehydrogenase = target: T1, Malate dehydrogenase (Sus scrofa, UniProt P00346); test: Formation of formazan dyes: Malate dehydrogenase and 1-Methoxy PMS, absence of malate (TABLE 17); assay type: biochemical, pig heart; set-up: L-malate dehydrogenase (pig heart); purchased Sigma-Aldrich 10127248001 / 10127914001
T1 sequence (P00346 25-338): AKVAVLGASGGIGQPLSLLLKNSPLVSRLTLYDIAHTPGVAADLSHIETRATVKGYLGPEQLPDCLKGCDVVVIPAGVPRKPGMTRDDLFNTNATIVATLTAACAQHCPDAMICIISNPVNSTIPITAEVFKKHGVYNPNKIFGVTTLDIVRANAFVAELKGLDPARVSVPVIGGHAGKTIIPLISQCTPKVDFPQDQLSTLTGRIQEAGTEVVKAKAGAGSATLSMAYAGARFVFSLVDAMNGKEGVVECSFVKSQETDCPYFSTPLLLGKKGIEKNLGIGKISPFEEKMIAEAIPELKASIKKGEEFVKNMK

## COc1cc(-c2ccc(-[n+]3nc(-c4ccc(C(=O)N(CCS(=O)(=O)[O-])CCS(=O)(=O)[O-])cc4)nn3-c3nc4ccccc4s3)c(OC)c2)ccc1-[n+]1nc(-c2ccc(C(=O)N(CCS(=O)(=O)[O-])CCS(=O)(=O)[O-])cc2)nn1-c1nc2ccccc2s1.[Na+].[Na+] [WST-5, 2,2′-Dibenzothiazolyl-5,5′-bis[4-di(2-sulfoethyl)carbamoylphenyl]-3,3′-(3,3′-dimethoxy 4,4′-biphenylene)ditetrazolium, disodium salt]
Diaphorase [1]; 0 h
  Formation of formazan dyes, absorbance, Means 0 h: 2.62
Diaphorase [1]; 1 h
  Formation of formazan dyes, absorbance, Means 1 h: 2.48
Diaphorase [1]; 2 h
  Formation of formazan dyes, absorbance, Means 2 h: 2.44
Diaphorase [1]; 3 h
  Formation of formazan dyes, absorbance, Means 3 h: 2.41
Diaphorase [1]; 4 h
  Formation of formazan dyes, absorbance, Means 4 h: 2.45
Diaphorase [1]; 6 h
  Formation of formazan dyes, absorbance, Means 6 h: 2.41
Diaphorase [1]; 8 h
  Formation of formazan dyes, absorbance, Means 8 h: 2.36
Diaphorase [1]; 10 h
  Formation of formazan dyes, absorbance, Means 10 h: 2.31
Diaphorase [1]; 12 h
  Formation of formazan dyes, absorbance, Means 12 h: 2.26
Diaphorase [2]; 0 h
  Absorbance, formation of formazan dyes (Means): 0.25
Diaphorase [2]; 1 h
  Absorbance, formation of formazan dyes (Means): 0.30
Diaphorase [2]; 2 h
  Absorbance, formation of formazan dyes (Means): 0.35
Diaphorase [2]; 3 h
  Absorbance, formation of formazan dyes (Means): 0.32
Diaphorase [2]; 4 h
  Absorbance, formation of formazan dyes (Means): 0.32
Diaphorase [2]; 6 h
  Absorbance, formation of formazan dyes (Means): 0.38
Diaphorase [2]; 8 h
  Absorbance, formation of formazan dyes (Means): 0.41
Diaphorase [2]; 10 h
  Absorbance, formation of formazan dyes (Means): 0.38
Diaphorase [2]; 12 h
  Absorbance, formation of formazan dyes (Means): 0.36
Oral lavage [3]
  Absorbance, formation of formazan dyes (Means): 0.77 and 1.11 and 1.29 and 1.39
Diaphorase [4]; 0 h
  Formation of formazan dyes, absorbance, Means 0 h: 2.81
Diaphorase [4]; 1 h
  Formation of formazan dyes, absorbance, Means 1 h: 2.81
Diaphorase [4]; 2 h
  Formation of formazan dyes, absorbance, Means 2 h: 2.79
Diaphorase [4]; 3 h
  Formation of formazan dyes, absorbance, Means 3 h: 2.78
Diaphorase [4]; 4 h
  Formation of formazan dyes, absorbance, Means 4 h: 2.86
Diaphorase [4]; 6 h
  Formation of formazan dyes, absorbance, Means 6 h: 2.83
Diaphorase [4]; 8 h
  Formation of formazan dyes, absorbance, Means 8 h: 2.77
Diaphorase [4]; 10 h
  Formation of formazan dyes, absorbance, Means 10 h: 2.74
Diaphorase [4]; 12 h
  Formation of formazan dyes, absorbance, Means 12 h: 2.66
[5]; Malate dehydrogenase and diaphorase, absence of malate, 0 h
  Formation of formazan dyes, absorbance, Means 0 h: 0.83
[5]; Malate dehydrogenase and diaphorase, absence of malate, 1 h
  Formation of formazan dyes, absorbance, Means 1 h: 1.35
[5]; Malate dehydrogenase and diaphorase, absence of malate, 2 h
  Formation of formazan dyes, absorbance, Means 2 h: 1.58
[5]; Malate dehydrogenase and diaphorase, absence of malate, 3 h
  Formation of formazan dyes, absorbance, Means 3 h: 1.74
[5]; Malate dehydrogenase and diaphorase, absence of malate, 4 h
  Formation of formazan dyes, absorbance, Means 4 h: 1.86
[5]; Malate dehydrogenase and diaphorase, absence of malate, 6 h
  Formation of formazan dyes, absorbance, Means 6 h: 2.06
[5]; Malate dehydrogenase and diaphorase, absence of malate, 8 h
  Formation of formazan dyes, absorbance, Means 8 h: 2.24
[5]; Malate dehydrogenase and diaphorase, absence of malate, 10 h
  Formation of formazan dyes, absorbance, Means 10 h: 2.33
[5]; Malate dehydrogenase and diaphorase, absence of malate, 12 h
  Formation of formazan dyes, absorbance, Means 12 h: 2.33
[5]; malate dehydrogenase and diaphorase (TABLE 9)
  reduction of tetrazolium dye in the absence of substrate malate: partially reduced
Diaphorase [6]; 0 h
  Absorbance, formation of formazan dyes (Means): 0.09
Diaphorase [6]; 1 h
  Absorbance, formation of formazan dyes (Means): 0.12
Diaphorase [6]; 2 h
  Absorbance, formation of formazan dyes (Means): 0.15
Diaphorase [6]; 3 h
  Absorbance, formation of formazan dyes (Means): 0.18
Diaphorase [6]; 4 h
  Absorbance, formation of formazan dyes (Means): 0.21
Diaphorase [6]; 6 h
  Absorbance, formation of formazan dyes (Means): 0.23
Diaphorase [6]; 8 h
  Absorbance, formation of formazan dyes (Means): 0.26
Diaphorase [6]; 10 h
  Absorbance, formation of formazan dyes (Means): 0.29
Diaphorase [6]; 12 h
  Absorbance, formation of formazan dyes (Means): 0.32
[7]
  Means absorbance 0 h: 0.13
  Means absorbance 1 h: 0.15
  Means absorbance 2 h: 0.16
  Means absorbance 3 h: 0.16
[8]
  Absorbance, formation of formazan dyes (Means): 2.12 and 2.14 and 2.18 and 2.22
[9]
  Absorbance, formation of formazan dyes (Means): 0.33 and 0.45 and 0.48 and 0.55
[10]; Malate dehydrogenase, diaphorase and malate, 0 h
  Formation of formazan dyes, absorbance, Means 0 h: 0.75
[10]; Malate dehydrogenase, diaphorase and malate, 1 h
  Formation of formazan dyes, absorbance, Means 1 h: 1.32
[10]; Malate dehydrogenase, diaphorase and malate, 2 h
  Formation of formazan dyes, absorbance, Means 2 h: 1.67
[10]; Malate dehydrogenase, diaphorase and malate, 3 h
  Formation of formazan dyes, absorbance, Means 3 h: 1.93
[10]; Malate dehydrogenase, diaphorase and malate, 4 h
  Formation of formazan dyes, absorbance, Means 4 h: 2.04
[10]; Malate dehydrogenase, diaphorase and malate, 6 h
  Formation of formazan dyes, absorbance, Means 6 h: 2.20
[10]; Malate dehydrogenase, diaphorase and malate, 8 h
  Formation of formazan dyes, absorbance, Means 8 h: 2.34
[10]; Malate dehydrogenase, diaphorase and malate, 10 h
  Formation of formazan dyes, absorbance, Means 10 h: 2.49
[10]; Malate dehydrogenase, diaphorase and malate, 12 h
  Formation of formazan dyes, absorbance, Means 12 h: 2.60
[10]; malate dehydrogenase, diaphorase and malate (TABLE 10), disodium salt
  conversion to reduced formazan dyes: converted to reduced formazan dyes in a time-dependent fashion; also recorded: able to catalyze the reduction
[11]
  Absorbance, formation of formazan dyes (Means): 1.84
Oral lavage [12]; 0 h
  Formation of formazan dyes, absorbance, Means 0 h: 0.57
Oral lavage [12]; 1 h
  Formation of formazan dyes, absorbance, Means 1 h: 0.74
Oral lavage [12]; 2 h
  Formation of formazan dyes, absorbance, Means 2 h: 0.80
Oral lavage [12]; 3 h
  Formation of formazan dyes, absorbance, Means 3 h: 0.75
Oral lavage [12]; 4 h
  Formation of formazan dyes, absorbance, Means 4 h: 0.67
Oral lavage [12]; 6 h
  Formation of formazan dyes, absorbance, Means 6 h: 0.85
Oral lavage [12]; 8 h
  Formation of formazan dyes, absorbance, Means 8 h: 0.90
Oral lavage [12]; 10 h
  Formation of formazan dyes, absorbance, Means 10 h: 1.02
Oral lavage [12]; 12 h
  Formation of formazan dyes, absorbance, Means 12 h: 1.08
Oral lavage [13]; oral lavage and diaphorase, not malate, 0 h
  Formation of formazan dyes, absorbance, Means 0 h: 0.60
Oral lavage [13]; oral lavage and diaphorase, not malate, 1 h
  Formation of formazan dyes, absorbance, Means 1 h: 0.72
Oral lavage [13]; oral lavage and diaphorase, not malate, 2 h
  Formation of formazan dyes, absorbance, Means 2 h: 0.77
Oral lavage [13]; oral lavage and diaphorase, not malate, 3 h
  Formation of formazan dyes, absorbance, Means 3 h: 0.80
Oral lavage [13]; oral lavage and diaphorase, not malate, 4 h
  Formation of formazan dyes, absorbance, Means 4 h: 0.78
Oral lavage [13]; oral lavage and diaphorase, not malate, 6 h
  Formation of formazan dyes, absorbance, Means 6 h: 0.83
Oral lavage [13]; oral lavage and diaphorase, not malate, 8 h
  Formation of formazan dyes, absorbance, Means 8 h: 0.84
Oral lavage [13]; oral lavage and diaphorase, not malate, 10 h
  Formation of formazan dyes, absorbance, Means 10 h: 0.81
Oral lavage [13]; oral lavage and diaphorase, not malate, 12 h
  Formation of formazan dyes, absorbance, Means 12 h: 0.80
Oral lavage [13]; pooled oral lavage of high bleeder group, diaphorase, no added malate (TABLE 11)
  reduction to formazan dyes by pooled oral lavage: partially reduced to formazan dyes
Diaphorase [14]
  concentration of tetrazolium salt at which absorbance reached peaks: 1 mM
Malate dehydrogenase
  reduction by malate dehydrogenase alone: did not catalyze the reduction
Malate dehydrogenase; disodium salt
  Absorbance, formation of formazan dyes (Means): 0.24 and 0.37 and 0.41 and 0.43
